System: HL-60 cells
Assay: TPA + low doses of Ara-C, HL-60 differentiation
Format: cell-based, human
Details: Ara-C alone, low dose 100 ng/ml
From the text: (2) TPA+Low Doses of Ara-C:

Q: How did the HL-60 cell differentiation turn out when `Nc1ccn([C@@H]2O[C@H](CO)[C@@H](O)[C@@H]2O)c(=O)n1` [Ara-C, cytarabine, reference compound] was run?
A: could induce cell differentiation
